Experimental data published in patent US8283368B2, “Selective ligands for the dopamine 3 (D3) receptor and methods of using the same” (The Regents of the University of Michigan, priority 2008, dated 2012).
Entries after “also recorded” stand apart in the source; their conditions may differ. Read-outs that look alike come from different tables or passages of the source.

Assays:
[1] = target: D1-like dopamine receptors; assay: [3H]SCH 23390 binding assay for D1-like dopamine receptors, rat brain membranes; conditions: single-site model, read-out: Ki ± SEM D1-like [3H]SCH23390
Method: (§1) All other Ki values are based on a single-site model.
(§2) Determination of D3 dopamine receptor affinity and selectivity were performed in membranes prepared from the brains of adult, male Sprague-Dawley rats (Harlan Sprague-Dawley, Indianapolis, Ind.). All compounds were dissolved in 100% ethanol at a concentration of 5 mM.

[2] = target: T1, D2 receptor (Rattus norvegicus, UniProt P61169); assay: In vivo hypothermia assay in rats (D2 agonist activity); design: compounds 5, 6, and 12 in yawning and hypothermia assays in rats; from tissue; host or cells: living rats (Harlan), core body temperature read-out; conditions: for in vivo functional activity at the D2 receptor: concluded from hypothermia in rats; for induction of hypothermia / changes in body temperature: rats, s.c.
T1 sequence (P61169 whole entry): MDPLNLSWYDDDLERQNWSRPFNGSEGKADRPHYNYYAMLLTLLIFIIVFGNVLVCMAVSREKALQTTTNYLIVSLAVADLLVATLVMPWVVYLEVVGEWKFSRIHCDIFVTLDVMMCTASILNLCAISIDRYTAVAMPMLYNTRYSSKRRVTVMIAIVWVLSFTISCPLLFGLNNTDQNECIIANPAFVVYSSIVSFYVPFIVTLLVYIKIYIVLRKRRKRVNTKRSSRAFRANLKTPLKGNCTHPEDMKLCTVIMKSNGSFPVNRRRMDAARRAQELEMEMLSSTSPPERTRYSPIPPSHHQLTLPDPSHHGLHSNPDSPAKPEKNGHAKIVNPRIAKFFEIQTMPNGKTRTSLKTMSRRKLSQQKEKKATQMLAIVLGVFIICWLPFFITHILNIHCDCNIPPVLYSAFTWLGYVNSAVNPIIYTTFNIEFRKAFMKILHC
Method: Recently, in vivo functional assays for the D3 and D2 receptors have been validated. (24,25). […] By employing these validated assays, compounds 5, 6, and 12 were evaluated for their in vivo functional activity at the D3 and D2 receptors.
(§3) Rats were purchased from Harlan (Indianapolis, Ind.) and housed three to a cage for yawning studies, and one to a cage for hypothermia studies. […] Yawning studies were performed as previously described (24,25), with yawning defined as a prolonged (about 1 second), wide opening of the mouth followed by a rapid closure. […] Yawning was recorded for 30 minutes after each injection. […] Yawns and changes in core body temperature are presented as the mean±standard error of the mean (SEM) with 8 (yawning) or 6 (hypothermia) rats per group.

[3] = target: T2, D3 receptor (Rattus norvegicus, UniProt P19020); assay: [3H]PD 128907 binding assay for D3 receptors, rat ventral striatum membranes; conditions: for Selectivity D1-like/D3 / Selectivity D2-like/D3: ratio of Ki values, Table 1; for less potent than compound 6 to the D3 receptor: Ki compared with compound 6
T2 construct: membranes prepared from the brains of adult, male Sprague-Dawley rats; from tissue; host or cells: rat ventral striatum (nucleus accumbens and olfactory tubercles) membranes
T2 sequence (P19020 whole entry): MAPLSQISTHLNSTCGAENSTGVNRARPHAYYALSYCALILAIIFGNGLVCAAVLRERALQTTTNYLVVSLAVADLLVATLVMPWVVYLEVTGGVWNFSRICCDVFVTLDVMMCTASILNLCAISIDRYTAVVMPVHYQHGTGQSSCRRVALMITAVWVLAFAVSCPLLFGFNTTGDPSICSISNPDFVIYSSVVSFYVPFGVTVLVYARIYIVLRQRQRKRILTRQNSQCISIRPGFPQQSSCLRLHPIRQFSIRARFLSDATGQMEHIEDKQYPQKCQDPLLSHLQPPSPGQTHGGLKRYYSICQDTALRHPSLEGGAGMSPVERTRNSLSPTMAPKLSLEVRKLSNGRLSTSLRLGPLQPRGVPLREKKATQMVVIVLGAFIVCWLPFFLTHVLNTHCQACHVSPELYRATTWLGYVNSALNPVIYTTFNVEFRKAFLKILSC
Method: as §1, §2
Rat ventral striatum (nucleus accumbens and olfactory tubercles) was prepared in assay buffer (50 mM Tris, 1 mM EDTA; pH 7.4 at 23° C.) to yield a final concentration of 10 mg original wet weight (o.w.w.)/ml. […] Nonspecific binding was defined by 1 μM spiperone. Assay tubes were incubated at 23° C. for 3 hours. The reaction was terminated by rapid vacuum filtration.

[4] = background statement on known compounds; cited from earlier work
[5] = target: T1, D2 receptor; assay: [3H]Spiperone binding assay for D2-like receptors, rat caudate-putamen membranes; design: from tissue; host or cells: rat caudate-putamen membranes; conditions: for Ki: rat brain
Method: as §1, §2
[^3H]Spiperone binding assays. […] Assays were performed using membranes prepared from rat caudate-putamen, which predominantly express the D2 subtype of D2-like receptors, and the final membrane homogenate concentration was 1.5 mg o.w.w./ml. The assay buffer was 50 mM Tris-HCl, 5 mM KCl, 2 mM MgCl2, and 2 mM CaCl2, pH 7.4 at 23° C.; the concentration of [^3H]spiperone (24 Ci/mmol; Amersham) was 0.2 nM; and the incubation time was 90 minutes at 23° C. Nonspecific binding was defined in the presence of 1 μM (+)-butaclamol.

[6] = Aqueous solubility; type: physicochemical
[7] = target: T1, D2 receptor; assay: Alteration of pramipexole induced hypothermia in rats; type: in vivo; design: compounds 5, 6, and 12 in yawning and hypothermia assays in rats; from tissue; host or cells: living rats (Harlan), core body temperature read-out; conditions: rats pretreated with 10.0 or 32.0 mg/kg
Method: as §3

[8] = single-site model, read-out: Ki ± SEM D2 [3H]Spiperone
[9] = rat brain, single-site model, mean±SEM of three to five determinations, read-out: Ki ± SEM D3 [3H]PD128907
[10] = 2-site fit, high affinity component, read-out: Ki ± SEM D2 [3H]Spiperone, high affinity component (h)
[11] = 2-site fit, low affinity component, read-out: Ki ± SEM D2 [3H]Spiperone, low affinity component (1)

SMILES | Ki [1] [nM] | in vivo functional activity at the D2 receptor [2] | induction of hypothermia / changes in body temperature [2] | Selectivity D1-like/D3 [3] | Selectivity D2-like/D3 [3] | Ki [5, 8] [nM] | Ki [3, 9] [nM] | aqueous solubility [6] | other results
CCCN[C@H]1CCc2nc(N)sc2C1 [Compound 1, pramipexole, reference compound] | > 100000 | D2 agonist at higher doses | induction of hypothermia occurring at higher doses |  |  |  |  |  | 
COc1ccc2c(c1)CCC1CN(CCC3CCC(NC(=O)c4ccc5ccccc5c4)CC3)CCN21 (centres unmarked) [Compound 4, reference compound] | > 50000 |  |  | >5000 | >1000 | > 10000 |  |  | Ki [3]: 5.7 ± 0.4 nM; aqueous solubility, known compounds [4]: poor aqueous solubility
CCCN(CCCCNC(=O)c1ccc2ccccc2c1)[C@H]1CCc2nc(N)sc2C1 [Compound 5, (S)—N-(4-((2-amino-4,5,6,7-tetrahydrobenzo[d]thiazol-6-yl)(propyl)amino)butyl)-2-naphthamide] |  | full agonist at the D3 and D2 receptors in vivo | hypothermia was induced by compound 5 at higher doses |  |  |  | 0.043 ± 0.006 | good aqueous solubility | Ki [5, 10]: 2.7 ± 0.4 nM; Ki [5, 11]: 6700 ± 1500 nM
CCCN(CC[C@H]1CC[C@H](NC(=O)c2ccc3ccccc3c2)CC1)[C@H]1CCc2nc(N)sc2C1 [Compound 6, Trans-N-(4-(2-(((S)-2-amino-4,5,6,7-tetrahydrobenzo[d]thiazol-6-yl)(propyl)amino)ethyl)cyclohexyl)-2-naphthamide] |  | no detectable agonist activity at the D2 receptor | failed to induce changes in body temperature |  |  |  |  | good aqueous solubility | aqueous solubility ([6]; dihydrochloride salt form): greater than 100 mg/ml
CCCCN(CC[C@H]1CC[C@H](NC(=O)c2ccc3ccccc3c2)CC1)[C@H]1CCc2nc(N)sc2C1 [Compound 7, Trans-N-(4-(2-(((S)-2-amino-4,5,6,7-tetrahydrobenzo[d]thiazol-6-yl)(butyl)amino)ethyl)cyclohexyl)-2-naphthamide] | 5400 |  |  | >7,000 | 74 |  | 0.74 ± 0.083 |  | less selectivity for the D3 receptor over the D2 receptor than compound 6 ([3]; D2 high affinity binding component): ~10 fold; Ki [5, 10]: 55 ± 12 nM; Ki [5, 11]: 1300 ± 180 nM
CC(C)CCN(CC[C@H]1CC[C@H](NC(=O)c2ccc3ccccc3c2)CC1)[C@H]1CCc2nc(N)sc2C1 [Compound 8, Trans-N-(4-(2-(((S)-2-amino-4,5,6,7-tetrahydrobenzo[d]thiazol-6-yl)(isopentyl)amino)ethyl)cyclohexyl)-2-naphthamide] | 13000 |  |  | >5,000 | 157 | 345 ± 33 | 2.2 ± 0.1 |  | less potent than compound 6 to the D3 receptor [3]: 5 times
Nc1nc2c(s1)C[C@@H](N(CCC1CCCCC1)CC[C@H]1CC[C@H](NC(=O)c3ccc4ccccc4c3)CC1)CC2 [Compound 9, Trans-N-(-4-(2-(((S)-2-amino-4,5,6,7-tetrahydrobenzo[d]thiazol-6-yl)(2-cyclohexylethyl)amino)ethyl)cyclohexyl)-2-naphthamide] |  |  |  |  |  | 1200 | 23 ± 2.7 |  | less potent than compound 6 to the D2 receptor ([5]; Ki compared with compound 6): 3 times
Nc1nc2c(s1)C[C@@H](NCC[C@H]1CC[C@H](NC(=O)c3ccc4ccccc4c3)CC1)CC2 [Compound 10, Trans-N-(4-(2-((S)-2-amino-4,5,6,7-tetrahydrobenzo[d]thiazol-6-ylamino)ethyl)cyclohexyl)-2-naphthamide] | 64000 |  |  | >8,000 | 88 | 670 ± 140 | 7.6 |  | less potent than compound 6 to the D3 receptor [3]: 19 times
CCCN(CC[C@H]1CC[C@H](NC(=O)c2cc3ccccc3o2)CC1)[C@H]1CCc2nc(N)sc2C1 [Compound 11, Trans-N-(4-(2-(((S)-2-amino-4,5,6,7-tetrahydrobenzo[d]thiazol-6-yl)(propyl)amino)ethyl)cyclohexyl)benzofuran-2-carboxamide] |  |  |  |  |  | 68 ± 4.6 |  |  | 
CCCN(CC[C@H]1CC[C@H](NC(=O)C=Cc2ccccc2)CC1)[C@H]1CCc2nc(N)sc2C1 [Compound 12, Trans-N-(4-(2-(((S)-2-amino-4,5,6,7-tetrahydrobenzo[d]thiazol-6-yl)(propyl)amino)ethyl)cyclohexyl)cinnamamide] |  | no detectable agonist activity at the D2 receptor; also recorded: no detectable agonist or antagonist activity at the D2 receptor | failed to induce changes in body temperature |  |  | 330 ± 69 |  | good aqueous solubility | effect on induction of hypothermia by pramipexole [7]: failed to alter the induction of hypothermia by pramipexole
